Source: PMC10982999, “Structure-Guided Design and Optimization of Covalent VHL-Targeted Sulfonyl Fluoride PROTACs” (Journal of Medicinal Chemistry, 2024)

How the values were obtained:
[1] = target: T1, AR (AR-HiBiT LNCaP cells) (Homo sapiens, UniProt P10275, T878A); assay: AR HiBiT degradation assay; type: cell-based; conditions: for Dmax / DC50: LNCaP; for Dmax: read-out: Dmax (AR degradation); for AR degradation in presence of MLN4924: MLN4924 1 μM 3 h pretreatment, then compound 18 h; for AR degradation in presence of epoxomicin: epoxomicin 1 μM 3 h pretreatment, then compound 16 h; for DC50: read-out: DC50 (AR degradation), 16 h
T1 construct: host or cells: AR-HiBiT KI LNCaP
T1 sequence (P10275 1-920 T878A): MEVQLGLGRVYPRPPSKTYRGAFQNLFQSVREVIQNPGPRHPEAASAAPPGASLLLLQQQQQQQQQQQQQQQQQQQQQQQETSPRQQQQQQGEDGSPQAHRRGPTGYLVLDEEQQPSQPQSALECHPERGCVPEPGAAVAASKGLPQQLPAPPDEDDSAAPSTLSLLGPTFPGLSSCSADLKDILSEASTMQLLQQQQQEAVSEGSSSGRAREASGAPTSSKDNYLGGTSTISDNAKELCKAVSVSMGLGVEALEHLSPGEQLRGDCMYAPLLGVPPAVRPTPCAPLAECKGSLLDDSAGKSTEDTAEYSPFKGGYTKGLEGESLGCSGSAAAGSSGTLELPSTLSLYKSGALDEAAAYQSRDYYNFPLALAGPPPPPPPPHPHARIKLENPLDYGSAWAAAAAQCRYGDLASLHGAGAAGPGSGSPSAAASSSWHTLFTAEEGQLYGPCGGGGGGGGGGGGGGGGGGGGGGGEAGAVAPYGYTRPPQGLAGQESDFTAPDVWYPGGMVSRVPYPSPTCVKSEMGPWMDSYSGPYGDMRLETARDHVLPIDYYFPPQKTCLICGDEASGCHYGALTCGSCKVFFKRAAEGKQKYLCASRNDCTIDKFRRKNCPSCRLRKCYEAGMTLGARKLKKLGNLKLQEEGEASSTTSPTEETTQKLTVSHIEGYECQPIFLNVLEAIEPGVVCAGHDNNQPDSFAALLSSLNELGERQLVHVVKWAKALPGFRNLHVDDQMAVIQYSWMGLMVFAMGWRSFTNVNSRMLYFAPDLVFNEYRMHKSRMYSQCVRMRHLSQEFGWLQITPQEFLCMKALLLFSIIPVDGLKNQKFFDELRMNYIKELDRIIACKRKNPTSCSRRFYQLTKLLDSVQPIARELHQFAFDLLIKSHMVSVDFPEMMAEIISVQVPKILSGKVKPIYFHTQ
Description: Cellular BRD4/AR HiBiT assay
The HiBiT tagged cells were seeded at 10,000 cells per well in a 384-well plate (Thermo Scientific, 164610) at 25 µL per well in DMEM media containing 10% FBS and incubated overnight. Compounds were dispensed using D300e Digital Dispenser (HP) and normalized to 0.1% DMSO. Cells were pre-treated with Epoxomicin or MLN4924 for 3 h before treatment […]
Nano -Glo HiBiT lytic detection assay was performed as described in the manufacturer protocol (Promega). 25 µL of premixed detection reagent was added to each well of the 384 well assay plate and incubated for 15 min on an orbital shaker (at 600 RPM), and luminescence was read using a PHERAstar FS plate reader (BMG Labtech). Corresponding background RLU values were subtracted from DMSO control values and the percentage of protein (%) of were then calculated against […]
DMSO-treated controls. […]
1:1000 WB), Tubulin (Sigma #4967S 1:5000 WB).

AR-HiBiT LNCaP cells = conditions: 16 h, 75 μM-1 pM

Row | Structure (SMILES) | Dmax [1] | AR degradation in presence of MLN4924 [1] | AR degradation in presence of epoxomicin [1] | DC50 [1] | cytotoxicity (CellTiter-Glo) (AR-HiBiT LNCaP cells)
1 | Cc1cc([C@H](C(=O)N2C[C@H](S(=O)(=O)F)C[C@H]2C(=O)N[C@@H](CC(=O)N2CCC(C#Cc3ccc(C(=O)N[C@H]4C(C)(C)[C@H](Oc5ccc(C#N)c(Cl)c5)C4(C)C)cc3)CC2)c2ccc(-c3scnc3C)cc2)C(C)C)on1 [AR2-VHL-SF2, (3R,5S)-5-(((S)-3-(4-((4-(((1r,3r)-3-(3-Chloro-4-cyanophenoxy)-2,2,4,4-tetramethylcyclobutyl)-carbamoyl)phenyl)ethynyl)piperidin-1-yl)-1-(4-(4-methylthiazol-5-yl)phenyl)-3-oxopropyl)-carbamoyl)-1-((R)-3-methyl-2-(3-methylisoxazol-5-yl)butanoyl)pyrrolidine-3-sulfonyl fluoride] | 59% | AR degradation blockade | AR degradation blockade | 212 nM | did not exhibit cytotoxicity
2 | Cc1cc([C@H](C(=O)N2C[C@H](S(=O)(=O)F)C[C@H]2C(=O)N[C@@H](CC(=O)N2CCC(C#Cc3ccc(C(=O)N[C@H]4C(C)(C)[C@H](Oc5ccc(C#N)c(C(F)(F)F)c5)C4(C)C)cc3)CC2)c2ccc(-c3scnc3C)cc2)C(C)C)on1 [AR-VHL-SF2, (3R,5S)-5-(((S)-3-(4-((4-(((1r,3r)-3-(4-Cyano-3-(trifluoromethyl)phenoxy)-2,2,4,4-tetramethyl-cyclobutyl)carbamoyl)phenyl)ethynyl)piperidin-1-yl)-1-(4-(4-methylthiazol-5-yl)phenyl)-3-oxo-propyl)carbamoyl)-1-((R)-3-methyl-2-(3-methylisoxazol-5-yl)butanoyl)pyrrolidine-3-sulfonyl fluoride] | 54% | AR degradation blockade | AR degradation blockade | 527 nM | did not exhibit cytotoxicity
